Laboratory results: patent publication US5663344A, “Method for the synthesis of huperzine A and analogs thereof and compounds useful therein” (Mayo Foundation for Medical Education and Research, priority 1994, dated 1997)

Molecular target: T1, acetylcholinesterase (Rattus norvegicus, UniProt P37136)
T1 construct: synaptosome-rich fraction containing endogenous acetylcholinesterase enzyme; from tissue; host or cells: rat cerebral cortex, synaptosome-rich fraction (Whittaker's P2 fraction: synaptosomes and mitochondria)
T1 sequence (P37136 32-614): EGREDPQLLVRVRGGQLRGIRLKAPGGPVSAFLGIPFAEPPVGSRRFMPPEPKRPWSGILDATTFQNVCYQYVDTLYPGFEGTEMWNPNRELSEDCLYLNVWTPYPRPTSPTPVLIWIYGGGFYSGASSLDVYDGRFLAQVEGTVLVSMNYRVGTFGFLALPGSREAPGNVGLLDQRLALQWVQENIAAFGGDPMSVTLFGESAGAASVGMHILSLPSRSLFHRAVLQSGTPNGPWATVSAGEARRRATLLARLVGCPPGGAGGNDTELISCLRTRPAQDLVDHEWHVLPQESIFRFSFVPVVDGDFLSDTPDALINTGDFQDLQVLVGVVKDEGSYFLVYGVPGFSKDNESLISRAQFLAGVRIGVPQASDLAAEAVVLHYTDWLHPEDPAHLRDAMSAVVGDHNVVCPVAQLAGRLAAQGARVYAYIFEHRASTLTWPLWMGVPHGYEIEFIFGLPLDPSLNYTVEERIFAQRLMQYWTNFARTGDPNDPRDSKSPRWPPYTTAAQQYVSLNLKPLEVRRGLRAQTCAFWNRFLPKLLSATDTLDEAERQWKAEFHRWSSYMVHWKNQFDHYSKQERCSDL
Assay: Inhibition of acetylcholinesterase in rat cortex synaptosome-rich fraction (hydrolysis of labelled acetylcholine)
Format: biochemical
Description: Rats were killed by decapitation and the brains were rapidly extirpated. The cortex was dissected out on ice according to the method of Glowinski and Iversen. […] Homogenates were centrifuged at 1000× g for 10 minutes to remove cell nuclei and heavy debris. […] A portion of this synaptosome-rich fraction was added in triplicate to ice-cold pH 7.4 Krebs-Ringer medium.
Assay of acetylcholinesterase was carried out according to the method of Johnson and Russell. See C. […] Acetylcholine labelled in the acetate moiety was enzymatically hydrolyzed by incubation for 10 minutes at room temperature in the presence of the above synaptosome-rich fraction containing endogenous acetylcholinesterase enzyme. The reaction was terminated by addition of a "stopping mixture" containing chloroacetic acid (1.0M), sodium hydroxide (0.5M) and sodium cloride (2.0M) to the reaction vial. Toluene-based scintillation fluid was added to the vial, to extract the released labelled acetate into the organic phase. […] Thus, the sample can be counted directly in the same reaction vial, in which the hydrolysis of sample by acetylcholinesterase has occurred.
Inhibition of cholinesterase activity was estimated, in triplicate, in the presence of a wide range of concentrations (10^-9 to 10^-3 M).

## CCC=C1C2C=C(C)CC1(N)c1ccc(=O)[nH]c1C2 (stereo not drawn) [1-carbon Analog]
Compared with huperzine A
  inhibition of the cholinesterase enzyme (in words): inhibited the cholinesterase enzyme, but to a lesser extent than huperzine A
read-out: IC50 (extent of cholinesterase enzyme inhibition), rat cortex synaptosome-rich fraction, 10 min, room temperature, triplicate, 10^-9 to 10^-3 M
  IC50: 100 µM
Relative to synthesized huperzine A, the smaller this number, the more potent the compound
  IC50 /IC50 of Huperzine A: 166.6
